Assay results from the supplement of paper PMC10307832.

Experiments:
Experiment in all cases: relative viability (nuclei count vs DMSO), 5 days (fraction); higher = more cells survive
XMD8-85 + Alpelisib = compound: CN1CCN(CC1)C2=CC(=C(C=C2)NC3=NC=C4C(=N3)N(C5=CC=CC=C5C(=O)N4C)C)OC [XMD8-85] + Cc1nc(NC(=O)N2CCC[C@H]2C(N)=O)sc1-c1ccnc(C(C)(C)C(F)(F)F)c1 [Alpelisib] (partner 2 µM)
Method in brief: (§1)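 Medians of duplicate plates are given as relative viability. That measure is the nuclei count in treated wells divided by the count in vehicle wells. Counts were taken on 4× images of lung cancer cell lines in 1536-well plates, 5 days after pin-tool dosing the day after seeding with one drug alone or a fixed anchor-drug dose plus five library-drug doses (not always all listed) in √10 steps.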

XMD8-85 + Dasatinib = compound: CN1CCN(CC1)C2=CC(=C(C=C2)NC3=NC=C4C(=N3)N(C5=CC=CC=C5C(=O)N4C)C)OC [XMD8-85] + Cc1nc(Nc2ncc(C(=O)Nc3c(C)cccc3Cl)s2)cc(N2CCN(CCO)CC2)n1 [Dasatinib] (partner 0.075 µM)
Method in brief: as §1

4EGI-1 + Foretinib = compound: O=C(O)C(Cc1ccccc1[N+](=O)[O-])=NNc1nc(-c2ccc(Cl)c(Cl)c2)cs1 (mixture of isomers) [4EGI-1] + COc1cc2c(Oc3ccc(NC(=O)C4(C(=O)Nc5ccc(F)cc5)CC4)cc3F)ccnc2cc1OCCCN1CCOCC1 [Foretinib] (partner 0.25 µM)
Method in brief: as §1

4EGI-1 + Crizotinib = compound: O=C(O)C(Cc1ccccc1[N+](=O)[O-])=NNc1nc(-c2ccc(Cl)c(Cl)c2)cs1 (mixture of isomers) [4EGI-1] + C[C@@H](Oc1cc(-c2cnn(C3CCNCC3)c2)cnc1N)c1c(Cl)ccc(F)c1Cl [Crizotinib] (partner 1 µM)
Method in brief: as §1

Cell Line | relative viability (XMD8-85 + Alpelisib; first compound 0.08 µM) | relative viability (XMD8-85 + Alpelisib; first compound 0.253 µM) | relative viability (XMD8-85 + Alpelisib; first compound 0.8 µM) | relative viability (XMD8-85 + Alpelisib; first compound 2.53 µM) | relative viability (XMD8-85 + Alpelisib; first compound 8 µM) | relative viability (XMD8-85 + Dasatinib; first compound 0.08 µM) | relative viability (XMD8-85 + Dasatinib; first compound 0.253 µM) | relative viability (XMD8-85 + Dasatinib; first compound 0.8 µM) | relative viability (XMD8-85 + Dasatinib; first compound 2.53 µM) | relative viability (XMD8-85 + Dasatinib; first compound 8 µM) | relative viability (4EGI-1 + Foretinib; first compound 0.5 µM) | relative viability (4EGI-1 + Foretinib; first compound 1.581 µM) | relative viability (4EGI-1 + Foretinib; first compound 5 µM) | relative viability (4EGI-1 + Foretinib; first compound 50 µM) | relative viability (4EGI-1 + Crizotinib; first compound 0.5 µM) | relative viability (4EGI-1 + Crizotinib; first compound 1.581 µM) | relative viability (4EGI-1 + Crizotinib; first compound 5 µM) | relative viability (4EGI-1 + Crizotinib; first compound 50 µM) | relative viability (4EGI-1 + Foretinib; first compound 15.81 µM) | relative viability (4EGI-1 + Crizotinib; first compound 15.81 µM)
PC-14 | 0.784 | 0.882 | 0.762 | 0.993 | 0.655 | 0.229 | 0.271 | 0.275 | 0.249 | 0.115 | 1.01 | 0.799 | 1.09 | 0.879 | 1.08 | 0.617 | 0.875 | 0.907 |  | 
NCI-H520 | 0.891 | 0.918 | 0.866 | 0.854 | 0.515 | 0.199 | 0.208 | 0.182 | 0.216 | 0.159 | 0.89 | 0.812 | 0.937 | 0.638 | 0.963 | 0.868 | 1.02 | 0.648 | 0.875 | 0.642
NCI-H2342 |  |  |  |  |  | 0.296 | 0.316 | 0.32 | 0.32 | 0.331 | 1.15 | 1.06 | 1.2 | 0.831 |  |  |  |  | 1.05 | 
NCI-H3122 | 0.814 | 0.71 | 0.954 | 0.93 | 0.766 | 0.933 |  | 0.984 | 0.861 | 0.794 | 0.897 | 0.897 | 0.927 | 0.684 | 0.274 | 0.262 | 0.281 | 0.221 | 0.986 | 0.24
HCC-78 | 0.384 | 0.405 | 0.39 | 0.3 | 0.285 | 0.567 | 0.48 | 0.42 | 0.352 | 0.242 | 0.636 |  | 0.547 | 0.525 | 0.365 | 0.258 | 0.371 | 0.373 | 0.416 | 0.286
SW 1573 | 0.917 | 0.596 | 0.745 | 0.615 | 0.663 | 0.466 | 0.364 | 0.393 | 0.499 | 0.343 | 1.13 | 0.954 | 1.13 | 0.52 | 0.937 | 0.842 | 0.87 | 0.424 | 0.878 | 0.722
NCI-H1650 |  |  |  |  |  | 0.34 | 0.313 | 0.365 | 0.271 | 0.192 | 1.37 |  | 1.04 | 0.405 | 1.03 |  | 0.888 | 0.246 | 0.749 | 0.547
HCC-44 | 0.835 | 0.79 | 0.852 | 0.64 | 0.307 |  |  |  |  |  |  |  |  |  | 0.841 | 0.6 | 0.8 | 0.186 |  | 0.656
NCI-H1623 |  |  |  |  |  | 0.533 | 0.571 | 0.533 | 0.56 | 0.444 | 0.889 | 0.608 | 0.941 | 0.707 |  |  |  |  | 0.584 | 
SW 900 |  |  |  |  |  | 0.615 | 0.608 | 0.641 | 0.549 | 0.417 | 0.935 |  | 0.908 | 0.546 |  |  |  |  | 0.677 | 
NCI-H1793 | 0.914 | 0.769 | 0.666 | 0.851 | 0.668 | 0.384 | 0.403 | 0.404 | 0.413 | 0.338 | 0.645 | 0.948 | 0.686 | 0.33 |  |  |  |  | 0.443 | 
NCI-H1299 | 1.15 | 0.948 | 1.08 | 1.07 | 0.874 |  |  |  |  |  | 1.08 | 1.11 | 1.11 | 1.06 | 0.98 | 1 | 0.914 | 0.386 | 1.09 | 0.973
ChaGo-K-1 |  |  |  |  |  | 0.449 |  | 0.613 | 0.57 | 0.577 | 0.942 | 0.935 | 0.816 | 0.799 | 1.23 |  | 1.15 | 0.553 | 0.975 | 0.961
Calu-6 | 1.02 | 0.985 | 1.05 | 1.08 | 0.865 |  |  |  |  |  | 0.933 | 0.717 | 0.919 | 0.659 | 0.796 | 0.756 | 0.854 | 0.201 | 0.912 | 0.834
IA-LM | 0.613 |  | 0.66 | 0.77 | 0.225 |  |  |  |  |  | 1.25 | 1.04 | 0.966 | 0.0865 | 0.903 | 0.629 | 0.569 | 0.0835 | 0.663 | 0.112
EBC-1 | 0.871 | 0.94 |  | 0.694 | 0.336 |  |  |  |  |  | 0.0952 | 0.0989 | 0.0859 | 0.103 | 0.205 | 0.247 | 0.162 | 0.224 | 0.0982 | 0.183
NCI-H1395 | 0.927 | 0.907 | 0.933 | 0.965 | 1.08 | 0.438 | 0.414 | 0.42 | 0.428 | 0.309 | 1.15 | 0.86 | 1.04 | 0.589 |  |  |  |  | 0.986 | 
A549 | 0.744 | 0.883 | 0.806 | 0.807 | 0.759 |  |  |  |  |  | 1.01 | 0.771 | 0.996 | 0.697 | 0.742 | 0.683 | 0.787 | 0.0783 | 0.883 | 0.669
NCI-H1703 | 0.305 | 0.433 | 0.337 | 0.401 | 0.265 |  |  |  |  |  | 0.38 | 0.373 | 0.348 | 0.326 | 0.754 | 0.597 | 0.681 | 0.269 | 0.349 | 0.521
NCI-H522 |  |  |  |  |  | 0.858 | 0.867 | 0.818 | 0.944 | 0.909 |  |  |  |  |  |  |  |  |  | 
